Data as given in patent US8846645B2, “Cyclohexane compounds and their use as antibiotics” (Rheinische Friedrich-Wilhelms Universität Bonn, priority 2010, dated 2014).

Key:
[1] = tested on: glmS riboswitch of Staphylococcus aureus MU50; assay: metabolite-induced self-cleavage assay of the glmS riboswitch; type: biochemical
Procedure: The determination was performed using an in vitro preparation of the glmS riboswitch of Staphylococcus aureus MU50.
The glmS riboswitch DNA was amplified from genomic DNA of the S. aureus Mu50 strain (RKI Berlin) by standard Pfu polymerase chain reaction (PCR) using a 5′ primer containing the T7 promoter (GATAATACGACTCACTATAGGGCAGTTAAAGCGCCTGTGCAAATA, SEQ ID NO: 1) and a 3′ primer (ATCTTATTAACTTTGTCCATTAAGTCACCC, SEQ ID NO: 2) (20 cycles, annealing temperature of 60° C., homemade Pfu enzyme). The resultant of a 100 μl PCR reaction was phenol/chloroform extracted and precipitated using 3M NaOAc pH 5.4 and ethanol Pellets were resuspended in 10 μl diethylpyrocarbonate treated water (DEPC H2O) and used as template for T7 RNA polymerase-based transcription. […]
For this assay the following components were mixed to yield the stated final concentrations: cleavage buffer (50 mM Hepes pH 7.5, 200 mM KCl), MgCl2 (10 mM), glucosamine-6-phosphate (200 μM), glucosamine (GlcN) (200 μM), the compound according to formula (I) (200 μM) or the compound according to formula (3) (200 μM and 20 mM), radioactively labelled RNA (20 cps) and DEPC H2O ad 10 μl. […] The screens were read using a FujiFilm PhosphorImager FLA 3000 and evaluated using AIDA software.

[2] = tested on: Staphylococcus aureus SG511; assay: determination of the minimal inhibitory concentration in Staphylococcus aureus SG511; type: cell-based; details: 0.5× Mueller-Hinton media, 18-24 h, OD 600 nm; FIG. 3
Procedure: The determination of the minimal inhibitory concentration (MIC) of the compounds according to formula (I) (carba-GlcN6P) and formula (3) (carba-GlcN) was performed in clear, round bottom 96-well plates. For this 100 μl of 0.5× Mueller-Hinton media (Oxoid, 300 gm/litre dehydrated infusion from beef, 17.5 gm/litre casein hydrolysate, 1.5 gm/litre starch, pH 7.3) were put into the 12 wells. To the first well 100 μl of 320 mM solution of carba-GlcN were added, mixed by pipetting and 100 μl of this mixture were transferred into the next well etc., generating a sequence final dilutions from 160 mM to 0.08 mM. Finally, SG511 cells that had been grown to an optical density (OD600) of 1 were diluted in 0.5× Mueller-Hinton media 1:10 000. From this dilution 100 μl were added to the already prepared plate leading to a final compound concentration of 80 mM-0.04 mM. After incubation for 10 min at RT and vivid shaking, the 96-well plate was transferred to a 37° C. incubator. After 18-24 h of incubation the plate was read at 600 nm using a standard plate reader.

[3] = tested on: Staphylococcus aureus Mu50 cells; assay: growth inhibition in vancomycin intermediate resistant Staphylococcus aureus Mu50 in sugar free medium; type: cell-based
Procedure: For the preparation of 2× chemically defined medium (2×CDM), a minimal medium for Staphylococcus aureus without glucose, for the preparation of 500 ml the following components were mixed in individual groups before being combined:
After preparation of the individual groups, the groups I-IV were added to group V. The volume was adjusted to 480 ml with ddH2O. The pH was adjusted to 7 using HCl followed by adjusting the volume to the final 500 ml. Before storage at 4° C. the medium was sterile filtered.
The determination of the decrease in bacterial growth of Staphylococcus aureus Mu50 cells (RKI Berlin) depending on the concentration of the compound according to formula (3) (C GlcN) was performed in clear, sterile, round bottom 96-well plates with lid. Before treatment, the cells were grown in 2×CDM medium without glucose at 37° C. for 24 h under vigorous shaking.
For the determination of the growth inhibition 100 μl of 2×CDM were put into each of 12 wells. […] The 96 well plate was incubated at 37° C. in a Tecan Sunrise plate reader, which tracks the optical density (OD600) in 10 minute intervals and automatically shakes the plate for one minute every two minutes. Minimal inhibitory concentration was read after 18 h to 24 h of incubation. […]

[4] = tested on: Staphylococcus aureus Mu50 cells; assay: synergistic effects with vancomycin treatment of S. aureus Mu50; type: cell-based; details: 0.0025 mM alone
Procedure: Before treatment, Staphylococcus aureus Mu50 cells (RKI Berlin) were grown in sterile, 15 ml flasks containing 5 ml of 2×CDM without glucose at 37° C. for 24 h under vigorous shaking.
For the determination of the growth inhibition 100 μl of 2×CDM containing 10 μM vancomycin were put into each of 12 wells. […] Finally, Mu50 cells that had been grown to an optical density (OD600) of 0.8 to 1 were diluted in 2×CDM to an optical density (OD600) of 0.2. From this dilution 100 μl were added to the already prepared plate leading to a final compound concentration of 80 mM, 40 mM, 20 mM, 10 mM, 5 mM, and 2.5 mM, a final concentration of 2.5 μM vancomycin and a final OD600 of 0.1 per well at the beginning of the measurement. The 96 well plate was incubated at 37° C. in a Tecan Sunrise plate reader, which tracks the optical density (OD600) in 10 minute intervals and automatically shakes the plate for one minute every two minutes. Minimal inhibitory concentration was read after 18 h to 24 h of incubation. Control cells were treated without compounds or with 2.5 μM vancomycin.

Compound: N[C@H]1C(O)O[C@H](COP(=O)(O)O)[C@@H](O)[C@@H]1O (stereo partly shown) [GlcN6P, glucosamine-6-phosphate, reference compound]
- EC50 ([1]; concentration dependent analysis, 37° C., 30 min): 3.61 ± 0.39 µM

Compound: N[C@@H]1[C@@H](O)[C@H](O)[C@@H](COP(=O)(O)O)C[C@@H]1O [formula (1), (1S,2S,3R,4R,5R)-2-amino-5-((phosphonooxy)methyl)-cyclohexane-1,3,4-triol]
- activation of the glmS-riboswitch compared with the native metabolite ([1]; versus GlcN6P): almost the same potency
- bacterial growth of Staphylococcus aureus [2]: effectively inhibit the growth

Compound: NC1C(O)CC(CO)C(O)C1O (stereo not shown) [formula (3), Carba-glucosamine]
- MIC ([3]; Staphylococcus aureus, MU50CELLS, 2×CDM without glucose, read after 18 h to 24 h, n=3, read-out: minimal inhibitory concentration (MIC)): 625 µM
- concentration at which measureable growth inhibition started ([3]; sugar free medium, referring to control cells grown without compounds, FIG. 4): 0.156 mM

Compound: CN[C@H](CC(C)C)C(=O)N[C@H]1C(=O)N[C@@H](CC(N)=O)C(=O)N[C@H]2C(=O)N[C@H]3C(=O)N[C@H](C(=O)N[C@H](C(=O)O)c4cc(O)cc(O)c4-c4cc3ccc4O)[C@H](O)c3ccc(c(Cl)c3)Oc3cc2cc(c3O[C@@H]2O[C@H](CO)[C@@H](O)[C@H](O)[C@H]2O[C@H]2C[C@](C)(N)[C@H](O)[C@H](C)O2)Oc2ccc(cc2Cl)[C@H]1O [vancomycin]
- bacterial growth (OD600) compared to untreated cells ([4]; after 10 h, FIG. 5): no change in the bacterial growth
- bacterial growth (OD600) compared to untreated cells ([4]; over 18 h of incubation, FIG. 6): no change in the bacterial growth
